pEC50: −log10 of the molar value.
How the values were obtained:
[1] = system: live pathological cells (LPC) in bone marrow samples of AML patients; assay: PharmaFlow PM test: ex vivo drug sensitivity of whole bone marrow samples, population pharmacodynamic models; format: cell-based, human; settings: typical population value
Description: Ex vivo drug sensitivity analysis was made using the PharmaFlow platform (previously termed ExviTech®) maintaining the bone marrow (BM) microenvironment. A minimum BM sample volume between one and two mL was collected by aspiration at AML diagnosis, before starting induction chemotherapy, and was processed by an automated method 24 hours after extraction. Samples were incubated with CYT, IDA and/or CYT+IDA for 48 hours. A more detailed description of the procedure has been published elsewhere (Bennett, et al 2014).
Evaluation of drug response was done by counting the number of live pathological cells (LPC) remaining after incubation at increasing drug concentrations (Upton and Mould 2014). Dying cells (apoptosis) were excluded using Annexin V-FITC. Pharmacological responses were analyzed using PD population-based models (Upton and Mould 2014) which essentially perform the fitting of the dependent variable (natural log of LPC) in a non-linear mixed-effects model to derive typical population values (fixed effects) and the magnitude of inter-patient and residual variability (random effects).
Model development was performed with the first-order conditional estimation method using interaction option with the software NONMEM (v7.2) (Beal, et al 1989-2001), according to the following equation: […]
Where LPC0 (LCTi0) parameter refers to the number of LPC (LCTi) after incubation in the absence of drug, Emax represents the maximum fractional decrease in LPC that the drug can elicit, EC50, is the drug concentration exerting half of Emax, and γ is the parameter governing the steepness of the LPC vs drug concentration (C) curve. For interaction analysis a Surface Interaction model (Greco, et al 1995) was used to estimate the degree of synergy, referred as a parameter, between both drugs. Interpatient variability (IPV) associated to all parameters was described by means of an exponential model of the components of variance. An additive error structure was used for the residual variability. Population PD models were built with bone marrow (BM) samples from 473 patients that were incubated with CYT, 456 with IDA and 443 with CYT+IDA. Bayesian estimation methods were then used to retrieve individual patient parameters based on their available exposure-response measurements in conjunction with the PD population parameters.
Individual response profiles normalized with respect to LPC0 (LCTi0), were integrated between the concentration points corresponding to the 20th and 80th percentiles of the distribution of estimated individual EC50 values, to obtain the values of the areas under the curves (AUCs) that were used as a descriptor of the ex vivo drug effect (i.e. the higher the AUC, the lower the cytotoxic effect (efficacy or potency) of the drug.

[2] = system: bone marrow samples of acute lymphoid leukemia (ALL) patients; assay: Ex vivo test of single drugs, EC50 compared with population distribution, acute lymphoid leukemia samples; format: cell-based, human
Description: (§1) Bone marrow samples were obtained from three adult patients diagnosed with MM (VIVIA-PMMM010431, VIVIA-PMMM060111 and VIVIA-PMMM130061) and three adult patients diagnosed with ALL (VIVIA-PMALL07002, VIVIA-PMALL04001 and VIVIA-PMALL09001). Following the same experimental design as described for examples 1 and 3, said bone marrow samples were incubated for 48 h in well plates containing the single drugs shown in FIGS. 21 to 26. After the measurement of pathological populations by flow cytometry, pharmacological response parameters were estimated using population pharmacodynamic models. The most representative parameter of drug potency, the EC50, was used for a comparative analysis of the results provided by said bone marrow samples with respect to the statistical distribution of the same parameter observed in a population of samples and stored in the database. Such populations varied in size depending on the drug, being always over one hundred individuals in the case of MM and between 15 and 21 individuals in the case of ALL.

[3] = system: first-line AML patients treated with CYT+IDA; assay: Validation of PM Test score vs clinical response in 112 first-line AML samples; format: in vivo, human; settings: 112 AML patients treated with CYT+IDA
Description: The Precision Medicine (PM) Test as described ranks treatments by a score that estimates the activity of each treatment across a population of patient samples. Higher score represents more ex vivo sensitivity to treatment, while lower score represents less ex vivo sensitivity to treatment, i.e. more ex vivo resistance. A particular format of the results of the PM Test is shown in FIG. 19, panels A and B, wherein the ranking of treatments by activity score from 100%=best to 0%=worst is shown (score may be represented graphically using a colour/tone gradient or categorisation). The following 3 categories are identified:
To validate the predictive power of these PM Test score results, the set of 123 samples treated homogeneously with CYT+IDA that were used in the correlation study of Example 1 were employed. Only 112 samples were used for validation. To evaluate the predictive power of the PM Test score, in the format shown in FIG. 19, panel A referring to a sensitive patient we can only use patients predicted to be sensitive or resistant. Treatments having intermediate scores are not considered sufficiently strong to predict any response. In the case of intermediate scores, other factors such as pharmacokinetics may be more important than the score. On the other hand, extreme scores are more likely to prevail over other factors such as pharmacokinetics.
The set of data of 112 patients treated with CYT+IDA represents a 1st line treatment of AML with a 72% response rate. This means that 72% of these 112 patients achieved Complete Remission (CR) clinically. The majority of patients were sensitive, with fewer resistant patients. Thus, the statistics are improved by calculating the % of cases in which the PM Test score predicted patients to be sensitive to the ex vivo treatment. This means selecting only the treatments to which the patient is expected to be very sensitive, with scores between 80-100%. The % of accurate prediction of sensitive (responsive) patients is referred as the Negative Predicted Value (NPV).
Samples whose score are between this variable threshold and 100% are analysed and predicted as sensitive because they have the top score. The results are shown for the monotherapies CYT and IDA, and for the combination treatment. Focus was placed on the combination treatment CYT+IDA that was administered to patients. Columns 8 to 10 of Table 4 show the results for the combined treatment CYT+IDA for different thresholds. The lowest threshold 55%, which means between 55 and 100%, identifies 93 out of the 112 samples, that would be predicted as sensitive. […] Thus, the prediction accuracy or NPV is 77/93=82.8%. As the threshold is increased (descending the 1st column of Table 4), the range of scores included is narrowed because the maximum is always 100%. Consequently, as the threshold is increased, the total number of samples included diminishes, reaching 0 samples at 100% (100-100%) and 18 samples at 95%. The decrease can be observed in the number of either sensitive or resistant samples (descending columns 8 and 9 of Table 4). […] Thus, the higher the score, the better the prediction (moreover, the intermediate sensitivity values provide less accurate prediction than the extreme values).

[4] = system: bone marrow samples of multiple myeloma (MM) patients; assay: Ex vivo test of single drugs, EC50 compared with population distribution, multiple myeloma samples; format: cell-based, human
Description: as §1

[5] = ALL second line patient VIVIA-PMALL04001, 48 h
[6] = MM patient VIVIA-PMMM010431, 48 h
[7] = MM patient VIVIA-PMMM130061, 48 h
[8] = MM patient VIVIA-PMMM060111, 48 h
[9] = ALL patient VIVIA-PMALL07002, 48 h
[10] = ALL patient VIVIA-PMALL09001, 48 h

Nc1ccn([C@@H]2O[C@H](CO)[C@@H](O)[C@@H]2O)c(=O)n1 [Cytarabine, cytarabine]
pEC50 ([1]; Homo sapiens, AML bone marrow samples, 48 h incubation): 5.16 | EMAX (maximum fractional decrease in LPC) ([1]; set to 1 in the model, 48 h): 1 | γ (steepness of LPC vs concentration curve) ([1]; 48 h): 0.684 | ex vivo activity [2, 5]: intermediate-low activity | % Sens. (percentage of patients sensitive to therapy, NPV) ([3]; PM Test score ≥55): 84.8% | Res. (number of patients resistant to therapy) ([3]; PM Test score ≥55): 14 | Sens. (number of patients sensitive to therapy) ([3]; PM Test score ≥55): 78 | % Sens. (percentage of patients sensitive to therapy, NPV) ([3]; PM Test score ≥60): 85.7% | Res. (number of patients resistant to therapy) ([3]; PM Test score ≥60): 13 | Sens. (number of patients sensitive to therapy) ([3]; PM Test score ≥60): 78 | % Sens. (percentage of patients sensitive to therapy, NPV) ([3]; PM Test score ≥65): 85.4% | Res. (number of patients resistant to therapy) ([3]; PM Test score ≥65): 13 | Sens. (number of patients sensitive to therapy) ([3]; PM Test score ≥65): 76 | % Sens. (percentage of patients sensitive to therapy, NPV) ([3]; PM Test score ≥70): 85.1% | Res. (number of patients resistant to therapy) ([3]; PM Test score ≥70): 13 | Sens. (number of patients sensitive to therapy) ([3]; PM Test score ≥70): 74 | % Sens. (percentage of patients sensitive to therapy, NPV) ([3]; PM Test score ≥75): 86.1% | Res. (number of patients resistant to therapy) ([3]; PM Test score ≥75): 11 | Sens. (number of patients sensitive to therapy) ([3]; PM Test score ≥75): 68 | % Sens. (percentage of patients sensitive to therapy, NPV) ([3]; PM Test score ≥80): 86.1% | Res. (number of patients resistant to therapy) ([3]; PM Test score ≥80): 10 | Sens. (number of patients sensitive to therapy) ([3]; PM Test score ≥80): 62 | % Sens. (percentage of patients sensitive to therapy, NPV) ([3]; PM Test score ≥85): 87.1% | Res. (number of patients resistant to therapy) ([3]; PM Test score ≥85): 8 | Sens. (number of patients sensitive to therapy) ([3]; PM Test score ≥85): 54 | % Sens. (percentage of patients sensitive to therapy, NPV) ([3]; PM Test score ≥90): 85.2% | Res. (number of patients resistant to therapy) ([3]; PM Test score ≥90): 8 | Sens. (number of patients sensitive to therapy) ([3]; PM Test score ≥90): 46 | % Sens. (percentage of patients sensitive to therapy, NPV) ([3]; PM Test score ≥95): 83.7% | Res. (number of patients resistant to therapy) ([3]; PM Test score ≥95): 7 | Sens. (number of patients sensitive to therapy) ([3]; PM Test score ≥95): 36 | Res. (number of patients resistant to therapy) ([3]; PM Test score ≥100): 0 | Sens. (number of patients sensitive to therapy) ([3]; PM Test score ≥100): 0

Cn1c(CCCC(=O)O)nc2cc(N(CCCl)CCCl)ccc21 [bendamustine]
EC50 relative to population distribution [4, 6]: below the 10th percentile | ex vivo activity [4, 6]: potent activity | ex vivo activity [4, 7]: very weak activity

CC(C)C[C@H](NC(=O)[C@H](Cc1ccccc1)NC(=O)c1cnccn1)B(O)O [bortezomib]
EC50 relative to population distribution [4, 6]: below the first quartile | ex vivo activity [4, 6]: potent activity | ex vivo activity [4, 8]: intermediate activity | ex vivo activity [4, 7]: very weak activity

O=P1(N(CCCl)CCCl)NCCCO1 (stereo not shown) [cyclophosphamide]
ex vivo activity [2, 9]: intermediate or high activity

COc1cccc2c1C(=O)c1c(O)c3c(c(O)c1C2=O)C[C@@](O)(C(C)=O)C[C@@H]3O[C@H]1C[C@H](N)[C@H](O)[C@H](C)O1 [daunorubicin]
ex vivo activity [2, 9]: intermediate or high activity | ex vivo activity [2, 10]: high activity | ex vivo activity [2, 5]: low activity or resistance

C[C@@H]1C[C@H]2[C@@H]3CCC4=CC(=O)C=C[C@]4(C)[C@@]3(F)[C@@H](O)C[C@]2(C)[C@@]1(O)C(=O)CO [dexamethasone]
ex vivo activity [4, 8]: no activity

O=C1c2c(O)ccc(O)c2C(=O)c2c(NCCNCCO)ccc(NCCNCCO)c21 [mitoxantrone]
ex vivo activity [2, 5]: low activity or resistance

C[C@]12C=CC(=O)C=C1CC[C@@H]1[C@@H]2[C@@H](O)C[C@@]2(C)[C@H]1CC[C@]2(O)C(=O)CO [prednisolone]
EC50 relative to population distribution [4, 6]: below the 10th percentile | ex vivo activity [4, 6]: potent activity | ex vivo activity [2, 9]: intermediate or high activity | ex vivo activity [2, 10]: high activity

O=C1CCC(N2C(=O)c3ccccc3C2=O)C(=O)N1 (stereo not shown) [thalidomide]
ex vivo activity [4, 7]: very weak activity

CC[C@]1(O)C[C@H]2CN(CCc3c([nH]c4ccccc34)[C@@](C(=O)OC)(c3cc4c(cc3OC)N(C=O)[C@H]3[C@@](O)(C(=O)OC)[C@H](OC(C)=O)[C@]5(CC)C=CCN6CC[C@]43[C@@H]65)C2)C1 [vincristine]
ex vivo activity [2, 9]: intermediate or high activity | ex vivo activity [2, 10]: high activity | ex vivo activity [2, 5]: low activity or resistance

L-asparaginase
ex vivo activity [2, 9]: intermediate or high activity

— patent publication US20210358575A1, “A METHOD FOR DETERMINING THE EFFICACY OF TREATMENT WITH A COMBINATION OF DRUGS IN A SUBJECT DIAGNOSED WITH A DISEASE AND A METHOD FOR CLASSIFYING THE UTILITY OF DRUG COMBINATIONS IN TREATMENT OF SAID SUBJECT” (priority 2018, published 2021)
